Measured values reported in patent US6407134B1, “Heterocyclecarbonyl amino acid hydroxyethylamino sulfonamide retroviral protease inhibitors” (G. D. Searle & Co., priority 1995, dated 2002).
Like-named read-outs stand apart in the source and are kept apart here.

Assays:
HIV protease = target: T1, HIV protease (Human immunodeficiency virus type 1 group M subtype B, UniProt P04585); test: HIV protease enzyme assay (fluorescence, substrate 2-Ile-Nle-Phe(p-NO2)-Gln-ArgNH2); type: biochemical
T1 construct: HIV protease is diluted in the assay buffer to a final enzyme concentration of 12.3 nanomolar, based on a molecular weight of 10,780
Description: The compounds of the present invention are effective HIV protease inhibitors. Utilizing an enzyme assay as described below, the compounds set forth in the examples herein disclosed inhibited the HIV enzyme. The preferred compounds of the present invention and their calculated IC50 (inhibiting concentration 50%, i.e., the concentration at which the inhibitor compound reduces enzyme activity by 50%) values are shown in Table 10. The enzyme method is described below. The substrate is 2-Ile-Nle-Phe(p-NO2)-Gln-ArgNH2. The positive control is MVT-101 (Miller, M. et al, Science, 246, 1149 (1989)] The assay conditions are as follows:
20 mM sodium phosphate, pH 6.4
The above described substrate is dissolved in DMSO, then diluted 10 fold in assay buffer. Final substrate concentration in the assay is 80 μM. HIV protease is diluted in the assay buffer to a final enzyme concentration of 12.3 nanomolar, based on a molecular weight of 10,780.
The final concentration of DMSO is 14% and the final concentration of glycerol is 18%. The test compound is dissolved in DMSO and diluted in DMSO to 10× the test concentration; 10 μl of the enzyme preparation is added, the materials mixed and then the mixture is incubated at ambient temperature for 15 minutes. […] The increase in fluorescence is monitored at 4 time points (0, 8, 16 and 24 minutes) at ambient temperature. […]

HIV-1 in CEM cells = test: CEM cell assay: HIV inhibition in acutely infected cells, tetrazolium (MTT) based colorimetric assay; conditions: Human immunodeficiency virus 1, CCRF-CEM, 168 h; CEM cells acutely infected with HIV-1, 7 days, MTT readout
Procedure: The effectiveness of various compounds were determined in the above-described enzyme assay and in a CEM cell assay.
The HIV inhibition assay method of acutely infected cells is an automated tetrazolium based colorimetric assay essentially that reported by Pauwles et al, J. Virol. Methods, 20, 309-321 (1988). Assays were performed in 96-well tissue culture plates. CEM cells, a CD4+ cell line, were grown in RPMI-1640 medium (Gibco) supplemented with a 10% fetal calf serum and were then treated with polybrene (2 μg/ml). An 80 μl volume of medium containing 1×10^4 cells was dispensed into each well of the tissue culture plate. To each well was added a 100 μl volume of test compound dissolved in tissue culture medium (or medium without test compound as a control) to achieve the desired final concentration and the cells were incubated at 37° C. for 1 hour. […] Likewise, the intrinsic toxicity of the test compound was determined by adding medium without virus to several wells containing test compound. […]
Following the addition of virus, cells were incubated at 37° C. in a humidified, 5% CO2 atmosphere for 7 days. […] The absorbance at 590 nm was determined for each sample using a Molecular Devices microplate reader. Absorbance values for each set of wells is compared to assess viral control infection, uninfected control cell response as well as test compound by cytotoxicity and antiviral efficacy.

SMILES | IC50 (HIV protease) [nM] | EC50 (HIV-1 in CEM cells) [nM] | IC50 (HIV protease; HIV protease 12.3 nanomolar, substrate 80 μM, pH 6.4, ambient temperature, read-out: IC50) [nM]
CC(C)CN(C[C@@H](O)[C@H](Cc1ccccc1)NC(=O)[C@@H](NC(=O)[C@@H]1CCCN1)C(C)(C)C)S(=O)(=O)c1ccc2c(c1)OCO2 [Entry 1] | 2 | 12 | –
CCC(C)[C@H](NC(=O)[C@@H]1CCCN1)C(=O)N[C@@H](Cc1ccccc1)[C@H](O)CN(CC(C)C)S(=O)(=O)c1ccc2c(c1)OCO2 (stereo partly drawn) [Entry 2] | – | – | 3
